Data as given in patent US6358885B1, “Substituted phenylheterocyclic herbicides” (Mississippi State University, priority 1992, dated 2002).

Key:
sorghum [1] = assay: Test C preemergence/postemergence greenhouse plant response rating 0 to 100; format: in vivo, Sorghum bicolor; details: POSTEMERGENCE
Description: (§1) The compounds evaluated in this test were formulated in a non-phytoxic solvent and applied to the soil surface before plant seedlings emerged (preemergence application), to water that covered the soil surface (flood application), and to plants that were in the one-to-four leaf stage (postemergence application). A sandy loam soil was used for the preemergence and postemergence tests, while a silt loam soil was used in the flood test. Water depth was approximately 2.5 cm for the flood test and was maintained at this level for the duration of the test. Plant species in the preemergence and postemergence tests consisted of barley (Hordeum vulgare), bedstraw (Galium aparine), blackgrass (Alopecurus myosuroides), chickweed (Stellaria media), corn (Zea mays), cotton (Gossypium hirsutum), crabgrass (Digitaria sanguinalis), downy brome (Bromus tectorum), giant foxtail (Setaria faberii), lambsquarters (Chenopodium album), morningglory (Ipomoea hederacea), pigweed ([…]), rape (Brassica napus), ryegrass (Lolium multiflorum), sorghum (Sorghum bicolor), soybean (Glycine max), speedwell (Veronica persica), sugar beet (Beta vulgaris), velvetleaf (Abutilon theophrasti), wheat (Triticum aestivum), wild buckwheat (Polygonum convolvulus), and wild oat (Avena fatua). All plant species were planted one day before application of the compound for the preemergence portion-of this test. Plantings of these species were adjusted to produce plants of appropriate size for the post-emergence portion of the test. […] All plant species were grown using normal greenhouse practices. Visual evaluations of injury expressed on treated plants, when compared to untreated controls, were recorded approximately fourteen to twenty one days after application of the test compound. […] A dash (-) response means no test result.

ryegrass = assay: as above; format: in vivo, Lolium multiflorum; details: POSTEMERGENCE
Description: as §1

wheat [2] = assay: Test B preemergence/postemergence greenhouse plant response rating 0 to 10; format: in vivo, Triticum aestivum; details: 0 to 10 scale
How it was run: (§2)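 Planted seeds are treated preemergence with compound dissolved in a non-phytotoxic solvent, while postemergence applications go onto plants of two to eighteen cm. Plants stay in the greenhouse twelve to sixteen days and are then rated visually relative to controls.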

wild buckwheat = assay: Test C preemergence/postemergence greenhouse plant response rating 0 to 100; format: in vivo, Polygonum convolvulus; details: POSTEMERGENCE
Description: as §1

lambsquarters = assay: Test B preemergence/postemergence greenhouse plant response rating 0 to 10; format: in vivo, Chenopodium album; details: 0 to 10 scale
How it was run: as §2

cotton = assay: as above; format: in vivo, Gossypium hirsutum; details: 0 to 10 scale
How it was run: as §2

blackgrass = assay: as above; format: in vivo, Alopecurus myosuroides; details: 0 to 10 scale
How it was run: as §2

downy brome = assay: Test C preemergence/postemergence greenhouse plant response rating 0 to 100; format: in vivo, Bromus tectorum; details: POSTEMERGENCE
Description: as §1

wild oat [3] = assay: Test B preemergence/postemergence greenhouse plant response rating 0 to 10; format: in vivo, Avena fatua; details: 0 to 10 scale
How it was run: as §2

rape = assay: Test C preemergence/postemergence greenhouse plant response rating 0 to 100; format: in vivo, Brassica napus; details: POSTEMERGENCE
Description: as §1

sorghum [4] = assay: Test B preemergence/postemergence greenhouse plant response rating 0 to 10; format: in vivo, Sorghum bicolor; details: 0 to 10 scale
How it was run: as §2

bedstraw = assay: as above; format: in vivo, Galium aparine; details: 0 to 10 scale
How it was run: as §2

wheat [5] = assay: Test C preemergence/postemergence greenhouse plant response rating 0 to 100; format: in vivo, Triticum aestivum; details: POSTEMERGENCE
Description: as §1

crabgrass = assay: as above; format: in vivo, Digitaria sanguinalis; details: POSTEMERGENCE
Description: as §1

sugar beet = assay: Test B preemergence/postemergence greenhouse plant response rating 0 to 10; format: in vivo, Beta vulgaris; details: 0 to 10 scale
How it was run: as §2

wild oat [6] = assay: Test C preemergence/postemergence greenhouse plant response rating 0 to 100; format: in vivo, Avena fatua; details: POSTEMERGENCE
Description: as §1

barley = assay: Test B preemergence/postemergence greenhouse plant response rating 0 to 10; format: in vivo, Hordeum vulgare; details: 0 to 10 scale
How it was run: as §2

C#CCN1C(=O)COc2cc(F)c(-c3nn4c(c3Br)CCCC4)cc21 [Compound 56]
Plant response rating, Sorghum (sorghum [1]; 62 g/ha, 0 to 100 scale): 60 | Plant response rating (0 to 100), Sorghum (sorghum [1]; Rate 1 g/ha): 20 | Plant response rating (0 to 100), Sorghum (sorghum [1]; Rate 4 g/ha): 30 | Plant response rating (0 to 100), Sorghum (sorghum [1]; Rate 16 g/ha): 50 | Plant response rating Ryegrass (ryegrass; 62 g/ha, 0 to 100 scale): 50 | Plant response rating (0 to 100), Ryegrass (ryegrass; Rate 1 g/ha): 20 | Plant response rating (0 to 100), Ryegrass (ryegrass; Rate 4 g/ha): 40 | Plant response rating (0 to 100), Ryegrass (ryegrass; Rate 16 g/ha): 40 | Plant response rating, Wheat (wheat [2]; POSTEMERGENCE, Rate 10 g/ha): 7 | Plant response rating, Wheat (wheat [2]; POSTEMERGENCE, Rate 50 g/ha): 7 | Plant response rating, Wheat (wheat [2]; PREEMERGENCE, Rate 50 g/ha): 4 | Plant response rating, Wild buckwheat (wild buckwheat; 62 g/ha, 0 to 100 scale): 100 | Plant response rating (0 to 100), Wild buckwheat (wild buckwheat; Rate 1 g/ha): 100 | Plant response rating (0 to 100), Wild buckwheat (wild buckwheat; Rate 4 g/ha): 100 | Plant response rating (0 to 100), Wild buckwheat (wild buckwheat; Rate 16 g/ha): 100 | Plant response rating, Lambsquarter (lambsquarters; POSTEMERGENCE, Rate 10 g/ha): 10 | Plant response rating, Lambsquarter (lambsquarters; POSTEMERGENCE, Rate 50 g/ha): 10 | Plant response rating, Lambsquarter (lambsquarters; PREEMERGENCE, Rate 50 g/ha): 10 | Plant response rating, Cotton (cotton; POSTEMERGENCE, Rate 10 g/ha): 10 | Plant response rating, Cotton (cotton; POSTEMERGENCE, Rate 50 g/ha): 10 | Plant response rating, Cotton (cotton; PREEMERGENCE, Rate 10 g/ha): 0 | Plant response rating, Cotton (cotton; PREEMERGENCE, Rate 50 g/ha): 0 | Plant response rating, Blackgrass (blackgrass; POSTEMERGENCE, Rate 10 g/ha): 6 | Plant response rating, Blackgrass (blackgrass; POSTEMERGENCE, Rate 50 g/ha): 7 | Plant response rating, Blackgrass (blackgrass; PREEMERGENCE, Rate 10 g/ha): 3 | Plant response rating, Blackgrass (blackgrass; PREEMERGENCE, Rate 50 g/ha): 6 | Plant response rating Downy Brome (downy brome; 62 g/ha, 0 to 100 scale): 70 | Plant response rating (0 to 100), Downy Brome (downy brome; Rate 1 g/ha): 40 | Plant response rating (0 to 100), Downy Brome (downy brome; Rate 4 g/ha): 50 | Plant response rating (0 to 100), Downy Brome (downy brome; Rate 16 g/ha): 60 | Plant response rating, Wild oat (wild oat [3]; POSTEMERGENCE, Rate 10 g/ha): 6 | Plant response rating, Wild oat (wild oat [3]; POSTEMERGENCE, Rate 50 g/ha): 6 | Plant response rating, Wild oat (wild oat [3]; PREEMERGENCE, Rate 50 g/ha): 5 | Plant response rating, Rape (rape; 62 g/ha, 0 to 100 scale): 100 | Plant response rating (0 to 100), Rape (rape; Rate 1 g/ha): 100 | Plant response rating (0 to 100), Rape (rape; Rate 4 g/ha): 100 | Plant response rating (0 to 100), Rape (rape; Rate 16 g/ha): 100 | Plant response rating, Sorghum (sorghum [4]; POSTEMERGENCE, Rate 10 g/ha): 3 | Plant response rating, Sorghum (sorghum [4]; POSTEMERGENCE, Rate 50 g/ha): 2 | Plant response rating, Sorghum (sorghum [4]; PREEMERGENCE, Rate 50 g/ha): 0 | Plant response rating, Bedstraw (bedstraw; POSTEMERGENCE, Rate 10 g/ha): 8 | Plant response rating, Bedstraw (bedstraw; POSTEMERGENCE, Rate 50 g/ha): 10 | Plant response rating, Bedstraw (bedstraw; PREEMERGENCE, Rate 10 g/ha): 4 | Plant response rating, Bedstraw (bedstraw; PREEMERGENCE, Rate 50 g/ha): 9 | Plant response rating, Wheat (wheat [5]; 62 g/ha, 0 to 100 scale): 60 | Plant response rating (0 to 100), Wheat (wheat [5]; Rate 1 g/ha): 30 | Plant response rating (0 to 100), Wheat (wheat [5]; Rate 4 g/ha): 50 | Plant response rating (0 to 100), Wheat (wheat [5]; Rate 16 g/ha): 60 | Plant response rating, Crabgrass (crabgrass; 62 g/ha, 0 to 100 scale): 20 | Plant response rating (0 to 100), Crabgrass (crabgrass; Rate 1 g/ha): 0 | Plant response rating (0 to 100), Crabgrass (crabgrass; Rate 4 g/ha): 0 | Plant response rating (0 to 100), Crabgrass (crabgrass; Rate 16 g/ha): 10 | Plant response rating, Sugar beet (sugar beet; POSTEMERGENCE, Rate 10 g/ha): 10 | Plant response rating, Sugar beet (sugar beet; POSTEMERGENCE, Rate 50 g/ha): 10 | Plant response rating, Sugar beet (sugar beet; PREEMERGENCE, Rate 50 g/ha): 9 | Plant response rating, Wild oat (wild oat [6]; 62 g/ha, 0 to 100 scale): 60 | Plant response rating (0 to 100), Wild oat (wild oat [6]; Rate 1 g/ha): 30 | Plant response rating (0 to 100), Wild oat (wild oat [6]; Rate 4 g/ha): 40 | Plant response rating (0 to 100), Wild oat (wild oat [6]; Rate 16 g/ha): 50 | Plant response rating, Barley (barley; POSTEMERGENCE, Rate 10 g/ha): 6 | Plant response rating, Barley (barley; POSTEMERGENCE, Rate 50 g/ha): 7 | Plant response rating, Barley (barley; PREEMERGENCE, Rate 10 g/ha): 0 | Plant response rating, Barley (barley; PREEMERGENCE, Rate 50 g/ha): 2
